One compound from PMC12320284, “Biochemical and biological evaluation of L-glutaminase from Aspergillus tamarii AUMC 10198 via solid-state fermentation” (Microbial Cell Factories, 2025) can be followed below.

For this assay, the system named is T1, L-glutaminase (Aspergillus tamarii AUMC 10198).
T1 construct: gene gtaA; approx. 62 kDa by SDS-PAGE, single band
Briefly: Nesslerization ammonia assay, […] nm; Lineweaver-Burk plot. The class given is biochemical. Conditions: standard assay conditions (0.1 M citrate-phosphate pH 7, 30 °C, 30 min as described for the crude enzyme); 0.2-2.0 mg/ml L-glutamine; apparent Km.

With `NC(=O)CC[C@H](N)C(=O)O` [L-glutamine], the Km was found to be 0.28 mg/mL.
